Patent US11154571B2, “Exosomes sourced from granulocytic myeloid-derived suppressor cells and application thereof” (Jiangsu University, priority 2015, dated 2021)

Biological target: T1, Arg-1 (Mus musculus, UniProt Q61176)
T1 construct: endogenous in cells; host or cells: primary G-MDSCs sorted from the spleen of tumor-bearing or CIA mice, and exosomes from their culture supernatant
T1 sequence (Q61176 1-323): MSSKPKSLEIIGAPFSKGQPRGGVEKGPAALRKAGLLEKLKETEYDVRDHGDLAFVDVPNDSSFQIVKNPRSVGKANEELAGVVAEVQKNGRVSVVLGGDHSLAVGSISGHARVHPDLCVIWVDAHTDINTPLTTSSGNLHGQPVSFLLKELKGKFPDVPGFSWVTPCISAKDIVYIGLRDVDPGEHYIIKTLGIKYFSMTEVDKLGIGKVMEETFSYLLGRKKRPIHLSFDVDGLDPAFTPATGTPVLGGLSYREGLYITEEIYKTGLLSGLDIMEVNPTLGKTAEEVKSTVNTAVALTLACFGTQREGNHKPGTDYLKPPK
Assay: Arg-1 activity detection (arginase assay kit)
Format: biochemical
Conditions: nor-NOHA (5 mg/ml in DMSO) added to G-MDSC culture; FIG. 7A
Procedure: (1) The activity detection of Arg-1 in G-MDSC exo and inhibition effect of nor-NOHA on the Arg-1 activity in G-MDSC exo: The sorted G-MDSCs are same to example 1. Inoculate 2×10^6 G-MDSCs per well in 24 well plate, and add 1 ml of RPMI-1640 medium and culture at 37° C., 5% CO2 for 16 h. The culture supernatant is collected and used for preparing G-MDSC exo, then the G-MDSC exo was lysed (the same with example 2), and the G-MDSC exo activity was measured with the arginase assay kit from eBioscience company. 5 mg of nor-NOHA powder was dissolved with 1 ml of DMSO, 5 mg/ml nor-NOHA solution is prepared. Experimental groups were treated as follows:
G-MDSC group: G-MDSCs were cultured, and cells are collected.
(G-MDSC+DMSO) group: G-MDSC is cultured after adding […] of DMSO, and cells were collected.
(G-MDSC+NN) group: G-MDSC is cultured after adding […] of nor-NOHA, and cells were collected.
G-MDSC exo group: G-MDSC is cultured, culture supernatant was collected.
(G-MDSC+DMSO) exo group: G-MDSC is cultured after adding […] of DMSO, culture supernatant was collected.
(G-MDSC+NN) exo group: G-MDSC is cultured after adding […] of nor-NOHA, culture supernatant was collected.

inhibition of Arg-1 activity in G-MDSC exo: could be inhibited
SMILES: N=C(NO)NCC[C@H](N)C(=O)O [NN, nor-NOHA]
